Values quoted from earlier work as cited in US20140303227A1, “TRANSMUCOSAL HORMONE DELIVERY SYSTEM” (Pharmaceutical Productions Inc., priority 2013, published 2014).

Settings: pH 6.8

CN1CCCC1c1cccnc1 (stereo not shown) [nicotine]
nicotine in the free base form: about 10%
